# Laboratory results as given in publication PMC11062899, “De novo development of small cyclic peptides that are orally bioavailable” (Nature Chemical Biology, 2023).
# Where “and” joins values, the source holds several entries; their conditions need not be identical. Equal values may be shown once. Read-outs that look alike come from different tables or passages of the source.
# Columns and labels:
# [1] = Passive artificial membrane permeability (PAMPA);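 as to Permeability% Average: top well sample relative to theoretical equilibrium sample by TIC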
# human α-thrombin = human α-thrombin (Homo sapiens, UniProt P00734); assay: Protease inhibition, Ki for human α-thrombin (fluorogenic substrate Z-Gly-Gly-Arg-AMC); assay type: biochemical; conditions: for Human alpha thrombin inhibition, slope normalized to DMSO: replicates R1-R3
# Experimental: (§1) The inhibition constants (Ki) of cyclic peptides were calculated by measuring thrombin inhibition in the presence of different concentrations of the cyclic peptides. […] Human α-thrombin (Molecular Innovations) and rat α-thrombin (Molecular Innovations) were used at final concentrations of 2 nM and 3 nM, respectively, and fluorogenic substrate (Z-Gly-Gly-Arg-AMC, Bachem) was used at a concentration of 50 μM. Enzymatic activity was determined by measuring fluorescent gain on a Tecan Infinite M200 Pro microplate reader (excitation: 360 nm, emission: 465 nm) or a PHERAstar FSX microplate reader (excitation: 380 nm, emission: 440 nm) for 30 min at 25 °C with a fluorescent readout every 3 min. The two instruments were controlled with Tecan Infinite M200 Pro instrument software (iControl, version 1.12) and PHERAstar FSX software (version 5.70, edition 8), respectively. Protease inhibition was calculated by comparing the enzymatic activity to a control without cyclic peptide.
# (§2) Half maximal inhibitory concentration (IC50) values were determined using a four-parameter logistic regression model in GraphPad Prism 9 to fit sigmoidal curves to the acquired data points according to equation (2) below.2 y=b+a−b/1+10^(logIC50−x)p where a and b represent the measured inhibition maximum and minimum, respectively; x is the logarithm of peptide concentration; y is the thrombin activity compared to a control without the cyclic peptide; and p is the Hill coefficient.
# (§3) Ki values were calculated using the IC50 and the Cheng–Prusoff equation (equation (3)).3 Ki=IC50/1+S0/Km where Km is the Michaelis–Menten constant of the enzyme for the substrate used in the assay, and [S]0 is the initial substrate concentration.
# rat α-thrombin = target: T1, rat α-thrombin (Rattus norvegicus, UniProt P18292); assay: Protease inhibition, Ki for rat α-thrombin (fluorogenic substrate Z-Gly-Gly-Arg-AMC); assay type: biochemical; conditions: for Rat alpha thrombin inhibition, slope normalized to DMSO: replicates R1-R3
# T1 construct: rat α-thrombin (Molecular Innovations) were used at final concentrations of 2 nM and 3 nM; purchased Molecular Innovations
# Experimental: as §1, §2, §3
# [2] = peptide concentration 1.00E+02 uM
# [3] = peptide concentration 1.19E-05 uM
# [4] = peptide concentration 1.22E-02 uM
# [5] = peptide concentration 1.25E+01 uM
# [6] = peptide concentration 1.53E-03 uM
# [7] = peptide concentration 1.56E+00 uM
# [8] = peptide concentration 1.91E-04 uM
# [9] = peptide concentration 1.95E-01 uM
# [10] = peptide concentration 2.38E-05 uM
# [11] = peptide concentration 2.44E-02 uM
# [12] = peptide concentration 2.50E+01 uM
# [13] = peptide concentration 3.05E-03 uM
# [14] = peptide concentration 3.12E+00 uM
# [15] = peptide concentration 3.81E-04 uM
# [16] = peptide concentration 3.91E-01 uM
# [17] = peptide concentration 4.77E-05 uM
# [18] = peptide concentration 4.88E-02 uM
# [19] = peptide concentration 5.00E+01 uM
# [20] = peptide concentration 6.10E-03 uM
# [21] = peptide concentration 6.25E+00 uM
# [22] = peptide concentration 7.63E-04 uM
# [23] = peptide concentration 7.81E-01 uM
# [24] = peptide concentration 9.54E-05 uM
# [25] = peptide concentration 9.77E-02 uM
smiles,measurement,setting,value
O=C1C[C@H]2CCCN2C(=O)[C@H](Cc2ccccc2)NC(=O)[C@@H](NC(=O)c2ccc(Cl)s2)CCC=CCCN1 [compound 39],PAMPA permeability: % permeability,"[1]; 50 μM, 12–18 h, acceptor concentration relative to equilibrium",70 ± 4%
same,Permeability% (single replicates R1–R3),"[1]; 50 μM, 13 h (Fig. 5d)",73.98% and 66.95% and 68.74%
same,Permeability% Average,"[1]; 50 μM, 13 h (Fig. 5d)",69.9%
same,Papp at 50 μM,"[1]; PAMPA, pH 7.4",11.5 ×10⁻⁶ cm/s
same,Ki,"human α-thrombin; average of R1-R3, read-out: Human alpha thrombin inhibition, Ki Average",4.24 µM
same,"Human alpha thrombin inhibition, slope normalized to DMSO",human α-thrombin; [2],7.2 and 18.3 and 14.2
same,"Human alpha thrombin inhibition, slope normalized to DMSO",human α-thrombin; [3],106.2 and 105.2 and 96.5
same,"Human alpha thrombin inhibition, slope normalized to DMSO",human α-thrombin; [4],97.4 and 143.9 and 87.6
same,"Human alpha thrombin inhibition, slope normalized to DMSO",human α-thrombin; [5],39.9 and 42.6 and 31.3
same,"Human alpha thrombin inhibition, slope normalized to DMSO",human α-thrombin; [6],107.6 and 85.1 and 100.8
same,"Human alpha thrombin inhibition, slope normalized to DMSO",human α-thrombin; [7],63.5 and 67.4 and 86.8
same,"Human alpha thrombin inhibition, slope normalized to DMSO",human α-thrombin; [8],94.4 and 101.9 and 82.4
same,"Human alpha thrombin inhibition, slope normalized to DMSO",human α-thrombin; [9],80.8 and 88.6 and 87.2
same,"Human alpha thrombin inhibition, slope normalized to DMSO",human α-thrombin; [10],104.6 and 100.1 and 103.6
same,"Human alpha thrombin inhibition, slope normalized to DMSO",human α-thrombin; [11],87.3 and 61.5 and 110.7
same,"Human alpha thrombin inhibition, slope normalized to DMSO",human α-thrombin; [12],18.7 and 30.4 and 26.6
same,"Human alpha thrombin inhibition, slope normalized to DMSO",human α-thrombin; [13],107.4 and 96.1 and 108.0
same,"Human alpha thrombin inhibition, slope normalized to DMSO",human α-thrombin; [14],66.3 and 72.5 and 68.3
same,"Human alpha thrombin inhibition, slope normalized to DMSO",human α-thrombin; [15],108.2 and 71.6 and 89.8
same,"Human alpha thrombin inhibition, slope normalized to DMSO",human α-thrombin; [16],98.6 and 87.2 and 97.0
same,"Human alpha thrombin inhibition, slope normalized to DMSO",human α-thrombin; [17],102.6 and 101.4 and 90.5
same,"Human alpha thrombin inhibition, slope normalized to DMSO",human α-thrombin; [18],86.2 and 70.0 and 72.9
same,"Human alpha thrombin inhibition, slope normalized to DMSO",human α-thrombin; [19],22.0 and 20.2 and 22.5
same,"Human alpha thrombin inhibition, slope normalized to DMSO",human α-thrombin; [20],107.1 and 94.4 and 65.9
same,"Human alpha thrombin inhibition, slope normalized to DMSO",human α-thrombin; [21],53.3 and 30.4 and 58.6
same,"Human alpha thrombin inhibition, slope normalized to DMSO",human α-thrombin; [22],101.4 and 104.3 and 107.6
same,"Human alpha thrombin inhibition, slope normalized to DMSO",human α-thrombin; [23],93.7 and 88.2 and 91.3
same,"Human alpha thrombin inhibition, slope normalized to DMSO",human α-thrombin; [24],107.7 and 104.4 and 105.3
same,"Human alpha thrombin inhibition, slope normalized to DMSO",human α-thrombin; [25],100.1 and 100.4 and 85.5
same,IC50,"human α-thrombin; single replicates R1-R3, read-out: Human alpha thrombin inhibition, IC50",6.06 µM and 4.33 µM and 6.11 µM
same,Ki,"human α-thrombin; single replicates R1-R3, read-out: Human alpha thrombin inhibition, Ki",4.67 µM (2×) and 3.34 µM (2×) and 4.71 µM (2×)
same,Ki,"rat α-thrombin; average of R1-R3, read-out: Rat alpha thrombin inhibition, Ki Average",1.19 µM
same,"Rat alpha thrombin inhibition, slope normalized to DMSO",rat α-thrombin; [2],8.6 and 7.4 and 11.4
same,"Rat alpha thrombin inhibition, slope normalized to DMSO",rat α-thrombin; [3],107.5 and 103.5 and 101.6
same,"Rat alpha thrombin inhibition, slope normalized to DMSO",rat α-thrombin; [4],107.3 and 99.3 and 79.0
same,"Rat alpha thrombin inhibition, slope normalized to DMSO",rat α-thrombin; [5],23.0 and 17.3 and 19.0
same,"Rat alpha thrombin inhibition, slope normalized to DMSO",rat α-thrombin; [6],108.1 and 101.8 and 103.2
same,"Rat alpha thrombin inhibition, slope normalized to DMSO",rat α-thrombin; [7],38.0 and 68.3 and 64.4
same,"Rat alpha thrombin inhibition, slope normalized to DMSO",rat α-thrombin; [8],111.1 and 96.6 and 97.0
same,"Rat alpha thrombin inhibition, slope normalized to DMSO",rat α-thrombin; [9],80.3 and 102.2 and 95.7
same,"Rat alpha thrombin inhibition, slope normalized to DMSO",rat α-thrombin; [10],106.4 and 99.5 and 91.3
same,"Rat alpha thrombin inhibition, slope normalized to DMSO",rat α-thrombin; [11],104.4 and 97.3 and 93.2
same,"Rat alpha thrombin inhibition, slope normalized to DMSO",rat α-thrombin; [12],14.0 and 11.2 and 8.1
same,"Rat alpha thrombin inhibition, slope normalized to DMSO",rat α-thrombin; [13],71.4 and 100.8 and 98.3
same,"Rat alpha thrombin inhibition, slope normalized to DMSO",rat α-thrombin; [14],53.4 and 47.3 and 48.9
same,"Rat alpha thrombin inhibition, slope normalized to DMSO",rat α-thrombin; [15],103.9 and 95.9 and 106.5
same,"Rat alpha thrombin inhibition, slope normalized to DMSO",rat α-thrombin; [16],72.4 and 80.6 and 86.0
same,"Rat alpha thrombin inhibition, slope normalized to DMSO",rat α-thrombin; [17],110.4 and 101.0 and 101.1
same,"Rat alpha thrombin inhibition, slope normalized to DMSO",rat α-thrombin; [18],95.5 and 75.4 and 93.2
same,"Rat alpha thrombin inhibition, slope normalized to DMSO",rat α-thrombin; [19],9.4 and 9.6 and 8.3
same,"Rat alpha thrombin inhibition, slope normalized to DMSO",rat α-thrombin; [20],86.0 and 97.7 and 122.2
same,"Rat alpha thrombin inhibition, slope normalized to DMSO",rat α-thrombin; [21],35.0 and 30.8 and 29.6
same,"Rat alpha thrombin inhibition, slope normalized to DMSO",rat α-thrombin; [22],106.2 and 91.0 and 101.5
same,"Rat alpha thrombin inhibition, slope normalized to DMSO",rat α-thrombin; [23],51.1 and 75.3 and 70.4
same,"Rat alpha thrombin inhibition, slope normalized to DMSO",rat α-thrombin; [24],108.0 and 102.0 and 103.8
same,"Rat alpha thrombin inhibition, slope normalized to DMSO",rat α-thrombin; [25],101.3 and 96.8 and 84.0
same,IC50,"rat α-thrombin; single replicates R1-R3, read-out: Rat alpha thrombin inhibition, IC50",1.34 µM and 2.67 µM and 2.44 µM
same,Ki,"rat α-thrombin; single replicates R1-R3, read-out: Rat alpha thrombin inhibition, Ki",741 nM (2×) and 1.48 µM (2×) and 1.35 µM (2×)
